Test results reported in patent US20240325544A1, “CATIONIC LIPID FOR COVALENT MODIFICATION OF PEPTIDES” (PharmalN Corporation, priority 2023, published 2024).
Bridge positions count the residues as written; N and C are the ends. Square brackets hold non-standard residues; d marks the D form. Peptide text beside a SMILES is read from it. * marks the point of attachment. Palmitoyl = CCCCCCCCCCCCCCCC(=O)*; Dab = NCC[C@H](N)C(=O)O; Dap = NC[C@H](N)C(=O)O; AEEA = NCCOCCOCC(=O)O

Columns and labels:
[1] = system: E0771 breast cancer cells; assay: Orthotopic mouse model of breast cancer using E0771 cells (FIG. 6); format: in vivo, mice; settings: 0.3 mg/kg (0.1 μmol/kg) SC once daily, 5 days on, 2 days off, 3 cycles
Description: Error bars represent standard error of the mean. FIG. 6A) Tumor growth kinetics of 6-week-old female C57BL/6J mice (n=10 per group) that were inoculated with E0771 breast cancer cells (250,000 cells/mouse) in the mammary gland. Starting from Day 4 post-inoculation, cationic alkyl modified CNP derivatives (SEQ ID NO: 29, 30, and 31) were administered subcutaneously at a bolus dose of 0.3 mg/kg (0.1 μmol/kg) once daily for 5 days (5 days on, 2 days off) for 3 cycles; dose days indicated by gridlines. The control group, which received only buffer, was dosed in the same manner to establish the baseline tumor growth kinetics. […] Therefore, it can be concluded that the attachment of CNP is important for the observed anti-tumor activity. Statistical analysis was based on Dunnett's test performed by using GraphPad (n=10, 10, 10, and 10; Control, SEQ ID NO: 29, SEQ ID NO: 30, and SEQ ID NO: 31) **** P<0.0001 vs Control group.
Therefore, it can be concluded that the attachment of CNP is essential for anti-tumor activity. […] Animal care and treatment: Female C57BL/6J mice (6 weeks-old) were purchased from Kyudo (Saga, Japan) and maintained under a 12-hour light/12-hour dark cycle with free access to water and standard mouse diet (MF diet, Oriental Yeast Co., Ltd. Tokyo, Japan or PicoLab Rodent Diet 20, LabDiet Corp., St. Louis, Missouri). Implantation and drug administration: Mice were implanted with E0771 breast cancer cells (250,000 cells/mouse; Cosmo Bio Tokyo, Japan) in their left mammary gland and were randomized into groups of n=10. Starting from Day 4 post-inoculation, cationic alkyl modified CNP derivatives (SEQ ID NOs: 29, 30, and 31) were administered subcutaneously at a bolus dose of 0.3 mg/kg (0.1 μmol/kg; with a dose volume of 10 mL/kg) in sterile water for injection (Otsuka Pharmaceutical, Tokushima, Japan) once daily for 5 days (5 days on, 2 days off) for 3 cycles. The control group, which received only buffer, was dosed in the same manner to establish the baseline tumor growth kinetics. Tumor sizes were measured using calipers. Statistical analysis was based on Dunnett's test performed by using GraphPad (n=10, 10, 10, and 10; Control, SEQ ID NO: 29, SEQ ID NO: 30, and SEQ ID NO: 31) **** P<0.0001 vs Control group.

C57BL/6J mice [2] = assay: Survival in LPS induced sepsis model (FIG. 2A); format: in vivo; settings: LPS 15 mg/kg IP; 0.3 mg/kg (0.1 μmol/kg) SC once, survival to 56 hours
Description: (§1) FIGS. 2A-2B: Single and repeat administration of cationic alkyl modified C-type Natriuretic Peptides increases probability of survival in LPS induced Sepsis and ALI animal models. FIG. 2A) Sepsis induction: Male C57BL/6J mice (n=10 per group; 3 groups) were injected IP with LPS (15 mg/kg) and treated with various test articles, including cationic alkyl modified CNPs (SEQ ID NO: 31 and 29; 0.3 mg/kg (0.1 μmol/kg) SC). The control group received LPS treatment without any test article. The test articles were administered immediately after LPS administration (marked with vertical dotted lines). Survival was monitored every 2 hours from 8-56 hours, after which the surviving mice were euthanized under isoflurane anesthesia. […] Survival was monitored every 8 hours for 72 hours, after which the surviving mice were euthanized under isoflurane anesthesia. […]
(§2) Animal care and treatment: Male C57BL/6J mice (6 weeks-old) were purchased from Kyudo (Saga, Japan) and maintained under a 12-hour light/12-hour dark cycle with free access to water and standard mouse diet (MF diet, Oriental Yeast Co., Ltd. Tokyo, Japan). […] Survival was monitored every 2 hours from 8-56 hours, after which the mice were euthanized under isoflurane anesthesia. […] Survival was monitored every 8 hours for 72 hours, after which the mice were euthanized under isoflurane anesthesia. […]

C57BL/6J mice [3] = assay: Survival in LPS induced ALI model (FIG. 2B); format: in vivo; settings: LPS 20 mg/kg IT; 0.3 mg/kg (0.1 μmol/kg) IT every 24 hours, 3 doses, survival to 72 hours
Description: as §1, §2

| Compound | Tumor volume compared to the Control group [1] | Survival (C57BL/6J mice [2]) | Survival (C57BL/6J mice [3]) |
| --- | --- | --- | --- |
| CCCCCCCCCCCCCCCC(=O)NCCOCCOCC(=O)NCCOCCOCC(=O)NCCOCCOCC(=O)N[C@@H](CN)C(=O)N[C@@H](CN)C(=O)NCC(=O)N[C@@H](CC(C)C)C(=O)N[C@@H](CO)C(=O)N[C@@H](CCCCN)C(=O)NCC(=O)N[C@H]1CSSC[C@@H](C(=O)O)NC(=O)CNC(=O)[C@H](CC(C)C)NC(=O)CNC(=O)[C@H](CO)NC(=O)[C@H](CCC(N)=O)NC(=O)[C@H](CO)NC(=O)CNC(=O)[C@H]([C@@H](C)CC)NC(=O)[C@H](CCCNC(=N)N)NC(=O)[C@H](CC(=O)O)NC(=O)[C@H](CC(C)C)NC(=O)[C@H](CCCCN)NC(=O)[C@H](CC(C)C)NC(=O)CNC(=O)[C@H](Cc2ccccc2)NC1=O [SEQ ID NO: 31] ({Palmitoyl-AEEA-AEEA-AEEA}-[Dap][Dap]GLSKGCFGLKLDRIGSQSGLGC-OH; disulfide 8-24; C-terminus assumed) | significant decrease in tumor volume | effective in improving survival | effective in improving survival |
| CCCCCCCCCCCCCCCC(=O)NCCOCCOCC(=O)NCCOCCOCC(=O)NCCOCCOCC(=O)N[C@@H](CCN)C(=O)N[C@@H](CCN)C(=O)NCC(=O)N[C@@H](CC(C)C)C(=O)N[C@@H](CO)C(=O)N[C@@H](CCCCN)C(=O)NCC(=O)N[C@H]1CSSC[C@@H](C(=O)O)NC(=O)CNC(=O)[C@H](CC(C)C)NC(=O)CNC(=O)[C@H](CO)NC(=O)[C@H](CCC(N)=O)NC(=O)[C@H](CO)NC(=O)CNC(=O)[C@H]([C@@H](C)CC)NC(=O)[C@H](CCCNC(=N)N)NC(=O)[C@H](CC(=O)O)NC(=O)[C@H](CC(C)C)NC(=O)[C@H](CCCCN)NC(=O)[C@H](CC(C)C)NC(=O)CNC(=O)[C@H](Cc2ccccc2)NC1=O [SEQ ID NO: 29] ({Palmitoyl-AEEA-AEEA-AEEA}-[Dab][Dab]GLSKGCFGLKLDRIGSQSGLGC-OH; disulfide 8-24; C-terminus assumed) | significant decrease in tumor volume | effective in improving survival | effective in improving survival |
